Legend:
BCDIN3D [1] = target: T1, BCDIN3D (Homo sapiens, UniProt Q7Z5W3); experiment: BCDIN3D IC50 RFMS (RapidFire) assay with mini-helix; assay type: biochemical; details: 25 nM enzyme
T1 sequence (Q7Z5W3 1-292): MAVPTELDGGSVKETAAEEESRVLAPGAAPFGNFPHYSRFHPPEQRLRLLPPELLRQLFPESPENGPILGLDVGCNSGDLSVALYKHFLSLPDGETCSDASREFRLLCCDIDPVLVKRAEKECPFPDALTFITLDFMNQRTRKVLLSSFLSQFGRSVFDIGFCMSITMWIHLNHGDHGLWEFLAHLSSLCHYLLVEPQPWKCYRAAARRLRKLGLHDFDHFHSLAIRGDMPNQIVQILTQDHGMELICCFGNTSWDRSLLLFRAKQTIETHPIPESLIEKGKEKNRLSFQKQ
Summary of the method: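 25 nM enzyme preincubated 10 min at room temperature with compound (1% DMSO) in 25 mM Tris pH 8.0, 10 mM DTT, 1 mM EDTA, 0.03% BSA. Reaction started with 0.2 μM mini-helix plus 6 μM SAM, run 1 h at 37 °C, quenched with TCA; SAH product quantified by RapidFire MS against isotopic SAH standards.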

BCDIN3D [2] = target: T1, BCDIN3D; experiment: BCDIN3D InCellPulse thermal stability assay in transfected A549 cells; assay type: cell-based; details: heat shock 58° C. 15 min
Summary of the method: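 A549 cells transiently expressing BCDIN3D N-terminally fused to ePL ProLabel tag, 1500 cells/well, pre-incubated 1 h at 37 °C with compound (0.6% DMSO). Heat shock 58 °C for 15 min; remaining soluble fusion detected by split β-galactosidase complementation luminescence.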

[3] = mini-helix substrate 0.2 μM, SAM 6 μM
[4] = transiently transfected A549 cells
[5] = mini-helix 0.2 μM and SAM 6 μM as substrates, 1 hr at 37° C.
[6] = A549 cells transiently transfected with ePL-BCDIN3D, 1 h pre-incubation

SMILES	IC50 (BCDIN3D [1]; [3]) [nM]	IC50 (BCDIN3D [2]; [4]) [nM]	IC50 (BCDIN3D [1]; [5]) [nM]	IC50 (BCDIN3D [2]; [6]) [nM]
Cn1ncc2c(Nc3ccc(F)c(F)c3)nc(NC[C@H](N)c3ccccc3)nc21 [Compound 4.34, N6-[(2R)-2-amino-2-phenyl-ethyl]-N4-(3,4-difluorophenyl)-1-methyl-pyrazolo[3,4-d]pyrimidine-4,6-diamine]	118	162	–	–
Cn1ncc2c(NC(C)(C)C3CCOCC3)nc(NC[C@H](N)c3ccccc3)nc21 [Compound 4.118, N6-[(2R)-2-amino-2-phenyl-ethyl]-1-methyl-N4-(1-methyl-1-tetrahydropyran-4-yl-ethyl)pyrazolo[3,4-d]pyrimidine-4,6-diamine]	2150	2500	–	–
Cn1ncc2c(NCC3CC3(C)C)nc(NC[C@H](N)c3ccccc3)nc21 (stereo partly drawn) [Compound 4.62, N6-[(2R)-2-amino-2-phenyl-ethyl]-N4-[(2,2-dimethylcyclopropyl)methyl]-1-methyl-pyrazolo[3,4-d]pyrimidine-4,6-diamine]	6.1	112	–	–
Cn1ncc2c(NC3CCC3)nc(NC[C@H](N)c3ccccc3)nc21 [Compound 4.83, N6-[(2R)-2-amino-2-phenyl-ethyl]-N4-cyclobutyl-1-methyl-pyrazolo[3,4-d]pyrimidine-4,6-diamine]	75.5	94.4	–	–
CCOc1nc(NCC(N)c2ccccc2)nc2c1cnn2C (stereo not drawn) [Compound 6.01, N′-(4-Ethoxy-1-methylpyrazolo[3,4-d]pyrimidin-6-yl)-1-phenylethane-1,2-diamine]	–	–	2510	6610
Cn1ncc2c(Nc3ccc(OC(F)F)nc3)nc(NCC(N)c3ccccc3)nc21 (stereo not drawn) [Compound 4.28, N6-(2-amino-2-phenyl-ethyl)-N4-[6-(difluoromethoxy)-3-pyridyl]-1-methyl-pyrazolo[3,4-d]pyrimidine-4,6-diamine]	149	318	–	–
Cn1ncc2c(Nc3ccc(Oc4ccccc4)cc3)nc(NCCN)nc21 [Compound 1.03, N6-(2-aminoethyl)-1-methyl-N4-(4-phenoxyphenyl)-1H-pyrazolo[3,4-d]pyrimidine-4,6-diamine]	–	–	975	918
Cn1ncc2c(NC(C)(C)C)nc(NCC(N)c3ccccc3Cl)nc21 (stereo not drawn) [Compound 5.10, N6-[2-amino-2-(2-chlorophenyl)ethyl]-N4-tert-butyl-1-methyl-pyrazolo[3,4-d]pyrimidine-4,6-diamine]	495	462	–	–
CC(C)Nc1nc(NCC(N)c2ccc(Br)cc2)nc2c1cnn2C (stereo not drawn) [Compound 5.19, 6-N-[2-amino-2-(4-bromophenyl)ethyl]-1-methyl-4-N-propan-2-ylpyrazolo[3,4-d]pyrimidine-4,6-diamine]	375	767	–	–
Cn1ncc2c(NCC(C)(F)F)nc(NC[C@H](N)c3ccccc3)nc21 [Compound 4.74, N6-[(2R)-2-amino-2-phenyl-ethyl]-N4-(2,2-difluoropropyl)-1-methyl-pyrazolo[3,4-d]pyrimidine-4,6-diamine]	252	341	–	–
Cn1ncc2c(NCc3ccc(-c4ccccc4)cc3)nc(NCCN)nc21 [Compound 1.05, N6-(2-aminoethyl)-1-methyl-N4-[(4-phenylphenyl)methyl]pyrazolo[3,4-d]pyrimidine-4,6-diamine]	–	–	2210	2970
COc1ccc(CNc2nc(NCCN)nc3c2cnn3C)c(OC)c1 [Compound 1.24, N6-(2-aminoethyl)-N4-[(2,4-dimethoxyphenyl)methyl]-1-methyl-1H-pyrazolo[3,4-d]pyrimidine-4,6-diamine]	–	–	2250	10600
Cn1ncc2c(Nc3cccc(-c4ccccc4)c3)nc(NCCN)nc21 [Compound 1.16, N6-(2-aminoethyl)-N4-{[1,1′-biphenyl]-3-yl}-1-methyl-1H-pyrazolo[3,4-d]pyrimidine-4,6-diamine]	–	–	744	1700
COc1cc(Nc2nc(NCC3(N)CC3)nc3c2cnn3C)ccc1Cl [Compound 2.41, 6-N-[(1-aminocyclopropyl)methyl]-4-N-(4-chloro-3-methoxyphenyl)-1-methylpyrazolo[3,4-d]pyrimidine-4,6-diamine]	211	1610	–	–
Cn1ncc2c(NC3(C(F)(F)F)CC3)nc(NC[C@H](N)c3ccccc3)nc21 [Compound 4.78, N6-[(2R)-2-amino-2-phenyl-ethyl]-1-methyl-N4-[1-(trifluoromethyl)cyclopropyl]pyrazolo[3,4-d]pyrimidine-4,6-diamine]	769	379	–	–
CN(C)c1ccc(Nc2nc(NC[C@H](N)c3ccccc3)nc3c2cnn3C)cc1 [Compound 4.35, N6-[(2R)-2-amino-2-phenyl-ethyl]-N4-[4-(dimethylamino)phenyl]-1-methyl-pyrazolo[3,4-d]pyrimidine-4,6-diamine]	143	141	–	–
Cn1ncc2c(NC(C)(C)C)nc(NCC(N)c3ccc(C4CC4)cc3)nc21 (stereo not drawn) [Compound 5.33, N6-[2-amino-2-(4-cyclopropylphenyl)ethyl]-N4-tert-butyl-1-methyl-1H-pyrazolo[3,4-d]pyrimidine-4,6-diamine]	130	150	–	–
Cn1ncc2c(NCC3CC3(F)F)nc(NC[C@H](N)c3ccccc3)nc21 (stereo partly drawn) [Compound 4.61, N6-[(2R)-2-amino-2-phenyl-ethyl]-N4-[(2,2-difluorocyclopropyl)methyl]-1-methyl-pyrazolo[3,4-d]pyrimidine-4,6-diamine]	266	378	–	–
COc1ccc(CNc2nc(NCC3(N)CC3)nc3c2cnn3C)c(OC)c1 [Compound 2.42, N6-[(1-aminocyclopropyl)methyl]-N4-[(2,4-dimethoxyphenyl)methyl]-1-methyl-pyrazolo[3,4-d]pyrimidine-4,6-diamine]	1260	2990	–	–
Cn1ncc2c(Nc3ccc(F)cc3F)nc(NCC3(N)CC3)nc21 [Compound 2.05, 6-N-[(1-aminocyclopropyl)methyl]-4-N-(2,4-difluorophenyl)-1-methylpyrazolo[3,4-d]pyrimidine-4,6-diamine]	1670	5050	–	–
Cn1ncc2c(NCC3CC(F)C3)nc(NC[C@H](N)c3ccccc3)nc21 (stereo partly drawn) [Compound 4.108, N6-[(2R)-2-amino-2-phenyl-ethyl]-N4-[(3-fluorocyclobutyl)methyl]-1-methyl-pyrazolo[3,4-d]pyrimidine-4,6-diamine]	288	611	–	–
Cn1ncc2c(Nc3ccc(Cl)cc3F)nc(NCC3(N)CC3)nc21 [Compound 2.15, 6-N-[(1-aminocyclopropyl)methyl]-4-N-(4-chloro-2-fluorophenyl)-1-methylpyrazolo[3,4-d]pyrimidine-4,6-diamine]	446	1630	–	–
Cn1ncc2c(Nc3ccccc3)nc(NCC3(N)COC3)nc21 [Compound 3.29, 6-N-[(3-Aminooxetan-3-yl)methyl]-1-methyl-4-N-phenylpyrazolo[3,4-d]pyrimidine-4,6-diamine]	4920	60000	–	–
CCNc1nc(NCC(N)c2ccccc2)nc2c1cnn2C (stereo not drawn) [Compound 4.41, 6-N-(2-amino-2-phenylethyl)-4-N-ethyl-1-methylpyrazolo[3,4-d]pyrimidine-4,6-diamine]	945	3330	–	–
CNc1nc(NCC(N)c2cccc(Br)c2)nc2c1cnn2C (stereo not drawn) [Compound 5.17, 6-N-[2-amino-2-(3-bromophenyl)ethyl]-4-N,1-dimethylpyrazolo[3,4-d]pyrimidine-4,6-diamine]	470	1870	–	–
Cn1ncc2c(NC34CC(F)(C3)C4)nc(NCC3(N)CC3)nc21 [Compound 2.43, N6-[(1-aminocyclopropyl)methyl]-N4-{3-fluorobicyclo[1.1.1]pentan-1-yl}-1-methyl-1H-pyrazolo[3,4-d]pyrimidine-4,6-diamine]	2790	5940	–	–
CN[C@@H](CNc1nc(NC(C)(C)C)c2cnn(C)c2n1)c1ccccc1 [Compound 5.29, N4-tert-butyl-1-methyl-N6-[(2R)-2-(methylamino)-2-phenylethyl]-1H-pyrazolo[3,4-d]pyrimidine-4,6-diamine]	2780	1690	–	–
Cn1ncc2c(Nc3ccc(F)c(Cl)c3)nc(NCC3(N)CC3)nc21 [Compound 2.27, 6-N-[(1-aminocyclopropyl)methyl]-4-N-(3-chloro-4-fluorophenyl)-1-methylpyrazolo[3,4-d]pyrimidine-4,6-diamine]	262	1810	–	–
CNc1nc(NCC(N)c2ccc(C#N)cc2)nc2c1cnn2C (stereo not drawn) [Compound 5.21, 4-[1-amino-2-[[1-methyl-4-(methylamino)pyrazolo[3,4-d]pyrimidin-6-yl]amino]ethyl]benzonitrile]	3860	11100	–	–
Cn1ncc2c(NC3CC4(CC4)C3)nc(NC[C@H](N)c3ccccc3)nc21 [Compound 4.119, 1-methyl-N6-[(2R)-2-amino-2-phenyl-ethyl]-N4-spiro[2.3]hexan-5-yl-pyrazolo[3,4-d]pyrimidine-4,6-diamine]	24	27	–	–

— patent US20220370453A1 (Storm Therapeutics Ltd, priority 2019, published 2022)
